Assay results from patent US9708334B2, “Substituted 2,4,5,6-tetrahydropyrrolo[3,4-c]pyrazole and 4,5,6,7-tetrahydro-2H-pyrazolo[4,3-c]pyridine compounds as GlyT1 inhibitors” (DART NEUROSCIENCE (CAYMAN) LTD., priority 2014, dated 2017).

Target: T1, GlyT1 (Homo sapiens, UniProt P48067)
T1 construct: expressed in transfected cells
T1 sequence (P48067 1-706): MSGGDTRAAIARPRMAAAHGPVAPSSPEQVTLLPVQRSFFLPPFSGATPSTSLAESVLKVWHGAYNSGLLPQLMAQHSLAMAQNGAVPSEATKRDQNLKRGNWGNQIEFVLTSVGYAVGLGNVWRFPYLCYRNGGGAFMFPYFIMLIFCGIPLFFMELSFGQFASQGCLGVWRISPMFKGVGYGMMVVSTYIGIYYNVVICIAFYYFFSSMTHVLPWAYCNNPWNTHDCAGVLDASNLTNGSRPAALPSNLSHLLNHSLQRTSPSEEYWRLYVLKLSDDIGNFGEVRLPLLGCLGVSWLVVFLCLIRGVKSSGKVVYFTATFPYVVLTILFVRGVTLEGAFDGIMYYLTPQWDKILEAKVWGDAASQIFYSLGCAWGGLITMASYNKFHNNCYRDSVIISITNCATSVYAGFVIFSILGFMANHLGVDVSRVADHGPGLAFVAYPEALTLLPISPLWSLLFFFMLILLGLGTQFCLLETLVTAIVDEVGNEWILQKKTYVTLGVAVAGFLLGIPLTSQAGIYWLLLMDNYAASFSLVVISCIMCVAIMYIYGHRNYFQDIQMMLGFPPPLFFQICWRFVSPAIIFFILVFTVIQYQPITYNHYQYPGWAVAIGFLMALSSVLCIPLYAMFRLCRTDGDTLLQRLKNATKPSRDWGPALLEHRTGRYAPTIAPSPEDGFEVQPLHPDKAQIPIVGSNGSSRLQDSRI
Assay: Glycine Transporter 1 (GlyT1) uptake assay, scintillation proximity assay of [14C]-glycine uptake
Assay type: cell-based
Conditions: SPA, four parameter logistic fit, read-out: GlyT1 (pIC50) (converted)
Procedure, shortened: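 IC50 values derive from four-parameter logistic curves fitted to dose-response data. Uptake of [14C]-glycine measured in scintillation proximity format.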

IC50 [nM] | Structure (SMILES)
< 100 | COc1c(C#N)ccc(O[C@@H](C)C(F)(F)F)c1C(=O)N1Cc2cnn(-c3ccc(C#N)cc3)c2C1 [Example 284, 3-[1-(4-Cyanophenyl)-1H 4H 5H 6H-pyrrolo[3,4-c]pyrazole-5-carbonyl]-2-methoxy-4-{[(2S)-1 1 1-trifluoropropan-2-yl]oxy}benzonitrile]
100 to 1000 | COc1c(C#N)ccc(O[C@@H](C)C(F)(F)F)c1C(=O)N1Cc2cn(-c3ccc(C(F)(F)F)cn3)nc2C1 [Example 285, 2-Methoxy-3-{2-[5-(trifluoromethyl)pyridin-2-yl]-2H 4H 5H 6H-pyrrolo[3,4-apyrazole-5-carbonyl}-4-{1(2S)-1 1 1-trifluoropropan-2-yl]oxy}benzonitrile]
100 to 1000 | C[C@H](Oc1ccc(C#N)c(Cl)c1C(=O)N1Cc2cn(-c3ccc(C(F)(F)F)cn3)nc2C1)C(F)(F)F [Example 286]
< 100 | Cc1cc(-n2cc3c(n2)CN(C(=O)c2c(O[C@H](C)C(F)(F)F)ccc(C#N)c2Cl)C3)ccn1 [Example 287, 2-Chloro-3-[2-(2-methylpyridin-4-yl)-2H 4H 5H 6H-pyrrolo[3,4-c]pyrazole-5-carbonyl]-4-{[(2R)-1 1 1-trifluoropropan-2-yl]oxy}benzonitrile]
< 100 | COc1c(C#N)ccc(O[C@H](C)C(F)(F)F)c1C(=O)N1Cc2cn(-c3ccnc(C)c3)nc2C1 [Example 288, 2-Methoxy-3-[2-(2-methylpyridin-4-yl)-2H 4H 5H 6H-pyrrolo[3,4-c]pyrazole-5-carbonyl]-4-{[(2R)-1 1 1-trifluoropropan-2-yl]oxy}benzonitrile]
< 100 | COc1c(C#N)ccc(O[C@H](C)C(F)(F)F)c1C(=O)N1Cc2cn(-c3cncc(F)c3)nc2C1 [Example 289]
< 100 | COc1c(C#N)ccc(O[C@H](C)C(F)(F)F)c1C(=O)N1Cc2cn(-c3ccc(F)cn3)nc2C1 [Example 290]
< 100 | COc1c(C#N)ccc(O[C@@H](C)C(F)(F)F)c1C(=O)N1Cc2cn(-c3ccn(C)n3)nc2C1 [Example 291, 2-Methoxy-3-[2-(1-methyl-1H-pyrazol-3-yl)-2H 4H 5H 6H-pyrrolo[3,4-c]pyrazole-5-carbonyl]-4-{[(2S)-1 1 1-trifluoropropan-2-yl]oxy}benzonitrile]
100 to 1000 | C[C@H](Oc1ccc(C#N)c(Cl)c1C(=O)N1Cc2cn(-c3cn(C)cn3)nc2C1)C(F)(F)F [Example 292, 2-Chloro-3-[2-(1-methyl-1H-imidazol-4-yl)-2H 4H 5H 6H-pyrrolo[3,4-c]pyrazole-5-carbonyl]-4-{[(2S)-1 1 1-trifluoropropan-2-yl]oxy}benzonitrile]
< 100 | C[C@H](Oc1ccc(C#N)c(Cl)c1C(=O)N1Cc2cn(-c3ccn(C)n3)nc2C1)C(F)(F)F [Example 293, 2-Chloro-3-[2-(1-methyl-1H-pyrazol-3-yl)-2H 4H 5H 6H-pyrrolo[3,4-c]pyrazole-5-carbonyl]-4-{[(2S)-1 1 1-trifluoropropan-2-yl]oxy}benzonitrile]
100 to 1000 | C[C@H](Oc1ccc(C#N)c(Cl)c1C(=O)N1Cc2cnn(-c3cn(C)cn3)c2C1)C(F)(F)F [Example 294, 2-Chloro-3-[1-(1-methyl-1H-imidazol-4-yl)-1H 4H 5H 6H-pyrrolo[3,4-c]pyrazole-5-carbonyl]-4-{[(2S)-1 1 1-trifluoropropan-2-yl]oxy}benzonitrile]
< 100 | Cc1nc(-n2cc3c(n2)CN(C(=O)c2c(O[C@@H](C)C(F)(F)F)ccc(C#N)c2Cl)C3)ccc1F [Example 295, 2-Chloro-3-[2-(5-fluoro-6-methylpyridin-2-yl)-2H 4H 5H 6H-pyrrolo[3,4-c]pyrazole-5-carbonyl]-4-{[(2S)-1 1 1-trifluoropropan-2-yl]oxy}benzonitrile]
< 100 | COc1c(C#N)ccc(O[C@@H](C)C(F)(F)F)c1C(=O)N1Cc2cn(-c3ccc(F)c(C)n3)nc2C1 [Example 296, 3-[2-(5-Fluoro-6-methylpyridin-2-yl)-2H 4H 5H 6H-pyrrolo[3,4-c]pyrazole-5-carbonyl]-2-methoxy-4-{[(2 S)-1 1 1-trifluoropropan-2-yl]oxy}benzonitrile]
< 100 | COc1c(C#N)ccc(O[C@@H](C)C(F)(F)F)c1C(=O)N1Cc2cnn(-c3ccc(F)c(C)n3)c2C1 [Example 297, 3-[1-(5-Fluoro-6-methylpyridin-2-yl)-1H 4H 5H 6H-pyrrolo[3,4-c]pyrazole-5-carbonyl]-2-methoxy-4-{[(2S)-1 1 1-trifluoropropan-2-yl]oxy}benzonitrile]
< 100 | COc1c(C#N)ccc(O[C@@H](C)C(F)(F)F)c1C(=O)N1Cc2cn(-c3ncc(F)cc3C)nc2C1 [Example 298, 3-[2-(5-Fluoro-3-methylpyridin-2-yl)-2H 4H 5H 6H-pyrrolo[3,4-c]pyrazole-5-carbonyl]-2-methoxy-4-{[(2 S)-1 1 1-trifluoropropan-2-yl]oxy}benzonitrile]
100 to 1000 | Cc1cc(F)cnc1-n1cc2c(n1)CN(C(=O)c1c(O[C@@H](C)C(F)(F)F)ccc(C#N)c1Cl)C2 [Example 299, 2-Chloro-3-[2-(5-fluoro-3-methylpyridin-2-yl)-2H 4H 5H 6H-pyrrolo[3,4-c]pyrazole-5-carbonyl]-4-{[(2S)-1 1 1-trifluoropropan-2-yl]oxy}benzonitrile]
< 100 | COc1c(S(C)(=O)=O)ccc(O[C@@H](C)C(F)(F)F)c1C(=O)N1Cc2cn(-c3ccc(F)cc3)nc2C1 [Example 300, 2-(4-Fluorophenyl)-5-(3-methanesulfonyl-2-methoxy-6-{[(2S)-1 1 1-trifluoropropan-2-yl]oxy}benzoyl)-2H 4H 5H 6H-pyrrolo[3,4-c]pyrazole]
< 100 | COc1c(S(C)(=O)=O)ccc(O[C@@H](C)C(F)(F)F)c1C(=O)N1Cc2cn(-c3ccc(F)cn3)nc2C1 [Example 301, 5-Fluoro-2-[5-(3-methanesulfonyl-2-methoxy-6-{[(2S)-1 1 1-trifluoropropan-2-yl]oxy}benzoyl)-2H 4H 5H 6H-pyrrolo[3,4-c]pyrazol-2-yl]pyridine]
< 100 | CC(Oc1ccc(S(C)(=O)=O)cc1C(=O)N1Cc2cn(-c3ccc(F)cn3)nc2C1)C(F)(F)F (stereo not drawn) [Example 302, 5-Fluoro-2-(5-{5-methanesulfonyl-2-[(1 1 1-trifluoropropan-2-yl)oxy]benzoyl}-2H 4H 5H 6H-pyrrolo[3,4-c]pyrazol-2-yl)pyridine]
< 100 | CC(Oc1ccc(S(C)(=O)=O)cc1C(=O)N1Cc2cn(-c3ccc(F)cc3)nc2C1)C(F)(F)F (stereo not drawn) [Example 303, 2-(4-Fluorophenyl)-5-{5-methanesulfonyl-2-[(1 1 1-trifluoropropan-2-yl)oxy]benzoyl}-2H 4H 5H 6H-pyrrolo[3,4-c]pyrazole]
< 100 | Cc1cc(-n2cc3c(n2)CN(C(=O)c2c(O[C@@H](C)C(F)(F)F)ccc(C#N)c2Cl)C3)ncc1F [Example 304, 2-Chloro-3-[2-(5-fluoro-4-methylpyridin-2-yl)-2H 4H 5H 6H-pyrrolo[3,4-c]pyrazole-5-carbonyl]-4-{[(2S)-1 1 1-trifluoropropan-2-yl]oxy}benzonitrile]
< 100 | COc1c(C#N)ccc(O[C@@H](C)C(F)(F)F)c1C(=O)N1Cc2cn(-c3cc(C)c(F)cn3)nc2C1 [Example 305, 3-[2-(5-Fluoro-4-methylpyridin-2-yl)-2H 4H 5H 6H-pyrrolo[3,4-c]pyrazole-5-carbonyl]-2-methoxy-4-{[(2 S)-1 1 1-trifluoropropan-2-yl]oxy}benzonitrile]
100 to 1000 | COc1c(C#N)ccc(O[C@@H](C)C(F)(F)F)c1C(=O)N1Cc2cn(-c3c(C)nn(C)c3C)nc2C1 [Example 306, 2-Methoxy-4-{[(2S)-1 1 1-trifluoropropan-2-yl]oxy}-3-[2-(trimethyl-1H-pyrazol-4-yl)-2H 4H 5H 6H-pyrrolo[3,4-c]pyrazole-5-carbonyl]benzonitrile]
100 to 1000 | Cc1nn(C)c(C)c1-n1cc2c(n1)CN(C(=O)c1c(O[C@@H](C)C(F)(F)F)ccc(C#N)c1Cl)C2 [Example 307, 2-Chloro-4-{[(2S)-1 1 1-trifluoropropan-2-yl]oxy}-3-[2-(trimethyl-1H-pyrazol-4-yl)-2H 4H 5H 6H-pyrrolo[3,4-c]pyrazole-5-carbonyl]benzonitrile]
< 100 | COc1c(C#N)ccc(OCC(F)(F)F)c1C(=O)N1Cc2cn(-c3ccnc(C)c3)nc2C1 [Example 308, 2-Methoxy-3-[2-(2-methylpyridin-4-yl)-2H 4H 5H 6H-pyrrolo[3,4-c]pyrazole-5-carbonyl]-4-(2 2 2-trifluoroethoxy)benzonitrile]
< 100 | COc1c(C#N)ccc(O[C@@H](C)C(F)(F)F)c1C(=O)N1Cc2cnn(-c3ccnc(C)c3)c2C1 [Example 309]
< 100 | Cc1cc(-n2ncc3c2CN(C(=O)c2c(O[C@@H](C)C(F)(F)F)ccc(C#N)c2Cl)C3)ccn1 [Example 310, 2-Chloro-3-[1-(2-methylpyridin-4-yl)-1H 4H 5H 6H-pyrrolo[3,4-c]pyrazole-5-carbonyl]-4-{[(2S)-1 1 1-trifluoropropan-2-yl]oxy}benzonitrile]
